Experimental data published in patent publication US4965280A, “Antifungal carbinols” (E. I. Du Pont de Nemours and Company, priority 1989, dated 1990).
Converted amounts (≈) assume the structure as drawn. Where two headings read alike, the source gives them in different places.

Experiments:
Pyricularia oryzae = assay: whole plant or invertebrate; type: in vivo; conditions: Pyricularia oryzae, 120 h, read-out: disease control rating, Ex. E, 100 PPM
[1] = tested on: Aspergillus fumigatus ATCC 28214; assay: In vitro antifungal MIC, microtiter broth dilution; conditions: Aspergillus fumigatus, ATCC28214, 24 h, read-out: MIC values, A. fumigatus, 30°, 24 hours
[2] = tested on: Candida albicans ATCC 11651; assay: In vitro antifungal MIC, microtiter broth dilution; conditions: Candida albicans, ATCC11651, 24 h, read-out: MIC values, C. albicans, 30°, 24 hours
[3] = tested on: Candida albicans ATCC 11651; assay: In vivo systemic Candida infection in mice, primary assay; set-up: species or system Candida albicans; CF-1 female mice; conditions: Candida albicans, 150 mg/kg per day, read-out: % Survival
Method in brief: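 CF-1 female mice (20 g, 10 per group) were infected IV with 0.2 ml of 1×10^7/ml C. albicans ATCC 11651, then given test compound subcutaneously at 50 or 150 mg/kg/day at 1 and 6 h post-infection and once daily for three more days. Survival was followed for 21 days against infected untreated mice; ≥70% protection at 14 days was scored active.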

Rhizoctonia solani [4] = assay: Example F rice sheath blight; type: in vivo; conditions: Rhizoctonia solani, 144 h, 100 PPM; read-out: disease control rating, Ex. F
Method in brief: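 Spray to run-off on rice seedlings; test suspension 100 or 20 ppm compound in water + 250 ppm TREM 014 surfactant, acetone 6% final volume.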

Plasmorpara viticola = assay: Example I grape downy mildew; type: in vivo; conditions: read-out: disease control rating, Ex. I
Method in brief: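 Compounds were dissolved in acetone (6% of final volume) and suspended at 100 or 20 ppm in purified water with 250 ppm TREM 014 surfactant (polyhydric alcohol esters). Grape seedlings were sprayed with this suspension to run-off.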

Phytophthora infestans = assay: whole plant or invertebrate; type: in vivo; conditions: Phytophthora infestans, in Solanum lycopersicum, read-out: disease control rating, Ex. H, 100 PPM
[5] = tested on: Erysiphe graminis f. sp. tritici; assay: Example D wheat powdery mildew; type: in vivo; conditions: Blumeria graminis, 144 h; 100 PPM; read-out: disease control rating, Ex. D
Method in brief: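 Spray to run-off on wheat seedlings; test suspension 100 or 20 ppm compound, acetone 6% v/v, 250 ppm polyhydric alcohol ester surfactant in water.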

Rhizoctonia solani [6] = assay: Example K cotton blight; type: in vivo; conditions: 336 h, 5 kg/ha, read-out: disease control rating, Ex. K
Method: […] Seeds and soil were then inoculated with a mixture of sand, cereal and mycelium of the fungus Rhizoctonia solani, causal agent of cotton blight, and incubated in a growth chamber at 30° C. for 14 days. Disease ratings were then made.

[7] = tested on: Cercosporidium personatum; assay: Example B Peanut Late Leafspot; type: in vivo; conditions: Nothopassalora personata; 100 PPM; read-out: disease control rating, Ex. B
Method in brief: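 Foliar spray on peanut seedlings, to run-off; test rates 100 or 20 ppm. Formulation: acetone at 6% of final volume, water with 250 ppm polyhydric alcohol ester surfactant.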

Venturia inaequalis = assay: Example A apple scab; type: in vivo; conditions: 100 PPM, read-out: disease control rating, Ex. A
Method in brief: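 Acetone solution (6% of final vol.) → suspension at 100 or 20 ppm in water + 250 ppm TREM 014 surfactant; sprayed to run-off on apple seedlings.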

Botrytis cinerea = assay: Example C bean grey mold; type: in vivo; conditions: Botrytis cinerea, 24 h, 100 PPM; read-out: disease control rating, Ex. C
Method in brief: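 Broad bean seedlings; foliar spray to run-off. Cmpd 100 or 20 ppm in water + 250 ppm TREM 014, acetone 6% v/v final.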

Sclerotium rolfsii = assay: Example M southern blight; type: in vivo; conditions: Agroathelia rolfsii, 336 h; 5 kg/ha; read-out: disease control rating, Ex. M
Method: […] Seeds and soil were then inoculated with a mixture of sand, cereal and mycelium of the fungus Sclerotium rolfsii, causal agent of sourthern blight, and incubated in a growth chamber at 30° C. for 14 days. Disease ratings were then made.

Puccinia recondita = assay: Example G wheat leaf rust; type: in vivo; conditions: 100 PPM, read-out: disease control rating, Ex. G
Pythium aphanadermatum = assay: Example J cucumber damping off; type: in vivo; set-up: key to phytotoxicity entry, Ex. J: P: disease control was not measured due to phytoxicity; conditions: 5 kg/ha; for pest or weed control at 5000 g/ha: Pythium, 336 h, read-out: disease control rating, Ex. J
Method: […] Seeds and soil were then inoculated with a mixture of sand, cereal and mycelium of the fungus Pythium aphanadermatum, causal agent of cucumber damping off, and incubated in a growth chamber at 30° C. for 14 days. Disease ratings were then made.

Compound | pest or weed control at 100 ppm (Pyricularia oryzae) | MIC [1] | MIC [2] | responders at 150 mg/kg ([3]; ATCC11651, 168 h, day 7) | responders at 150 mg/kg ([3]; ATCC11651, 336 h, day 14) | responders at 150 mg/kg ([3]; ATCC11651, 504 h, day 21) | pest or weed control at 100 ppm (Rhizoctonia solani [4]) | pest or weed control at 100 ppm (Plasmorpara viticola) | pest or weed control at 100 ppm (Phytophthora infestans) | pest or weed control at 100 ppm [5] | pest or weed control at 5000 g/ha (Rhizoctonia solani [6]) | pest or weed control at 100 ppm [7] | pest or weed control at 100 ppm (Venturia inaequalis) | pest or weed control at 100 ppm (Botrytis cinerea) | pest or weed control at 5000 g/ha (Sclerotium rolfsii) | pest or weed control at 100 ppm (Puccinia recondita) | phytotoxicity entry, Ex. J (Pythium aphanadermatum) | pest or weed control at 5000 g/ha (Pythium aphanadermatum)
C=C(c1ccc(Cl)cc1Cl)C(O)(Cn1cncn1)c1ccc(Cl)cc1Cl (centres unmarked) [Example 100] | 95% | 3.2 µg/mL (≈ 7.46 µM) | 0.03 µg/mL (≈ 0.0699 µM) | 100% | 50% | 30% | 80% | 83% | 0% | 83% | 0% | 100% | 100% | 96% | 0% | 100% | P | 
C=C(c1ccc(F)cc1)C(O)(CCCC)Cn1cncn1 (centres unmarked) [Example 6] | 0% | 25 µg/mL (≈ 86.4 µM) | 1.6 µg/mL (≈ 5.53 µM) | 50% | 10% | 0% | 0% | 0% | 23% | 98% | 0% | 82% | 0% | 84% | 0% | 96% |  | 0%
C=C(c1ccc(Cl)cc1)C(O)(Cn1cncn1)c1ccc(F)cc1 (centres unmarked) [Example 25] | 31% | 25 µg/mL (≈ 72.7 µM) | 1.6 µg/mL (≈ 4.65 µM) | 100% | 100% | 50% | 48% | 0% | 0% | 91% |  | 100% | 100% | 96% | 35% | 97% |  | 0%
C=C(c1ccc(Cl)cc1Cl)C(O)(Cn1cncn1)c1ccc(F)cc1 (centres unmarked) [Example 99] | 98% | 6.3 µg/mL (≈ 16.7 µM) | 0.05 µg/mL (≈ 0.132 µM) | 100% | 100% | 40% | 61% | 83% | 0% | 83% | 0% | 100% | 100% | 89% |  | 100% |  | 0%
C=C(c1ccccc1)C(O)(Cn1cncn1)c1ccccc1 (centres unmarked) [Example 608] | 4% | 6.3 µg/mL (≈ 21.6 µM) | 0.4 µg/mL (≈ 1.37 µM) | 100% | 70% | 20% | 81% | 0% | 0% | 98% | 0% | 100% | 87% | 98% |  | 100% |  | 0%
C=C(c1ccc(F)cc1)C(O)(Cn1cncn1)c1ccccc1 (centres unmarked) [Example 656] | 0% | 12.5 µg/mL (≈ 40.4 µM) | ≤ 0.4 µg/mL | 100% | 90% | 40% | 50% | 20% | 0% | 97% |  | 100% | 93% | 88% |  | 100% |  | 0%
C=C(c1ccc(Cl)cc1)C(O)(Cn1cncn1)c1ccccc1Cl (centres unmarked) [Example 671] | 84% | 0.2 µg/mL (≈ 0.555 µM) | 0.03 µg/mL (≈ 0.0833 µM) | 100% | 100% | 60% | 100% | 84% | 0% | 94% |  | 100% | 100% | 92% | 0% | 100% |  | 0%
C=C(c1ccc(F)cc1)C(O)(Cn1cncn1)c1ccc(Cl)cc1 (centres unmarked) [Example 3] | 5% | 50 µg/mL (≈ 145 µM) | ≤ 0.4 µg/mL | 100% | 100% | 60% | 93% | 0% | 0% | 93% | 0% | 100% | 100% | 93% |  | 100% |  | 0%
C=C(c1ccccc1Cl)C(O)(Cn1cncn1)c1ccc(F)cc1 (centres unmarked) [Example 32] | 97% | 1.6 µg/mL (≈ 4.65 µM) | ≤ 0.4 µg/mL | 100% | 90% | 50% | 33% | 98% | 0% | 95% | 0% | 100% | 100% | 98% |  | 100% |  | 0%
C=C(c1ccc(F)cc1F)C(O)(Cn1cncn1)c1ccc(F)cc1 (centres unmarked) [Example 94, 2-(4-Fluorophenyl)-3-(2,4-difluorophenyl)-1-(1H-1,2,4-triazol-1-yl)-3-buten-2-ol] | 78% | 50 µg/mL (≈ 145 µM) | 0.4 µg/mL (≈ 1.16 µM) | 100% | 40% | 10% | 36% | 0% | 0% | 98% | 0% | 61% | 86% | 96% |  | 100% |  | 0%
